Data published in US12681009B2, “Molecular target in cancer” (The Regents of the University of California, priority 2021, dated 2026).

Experiments:
[1] = target: T1, Musashi RNA Binding Protein 2 (MSI2) (Homo sapiens, UniProt Q96DH6); test: MSI2:NUMB-Biotin5′ RNA binding assay HTRF, 10-point duplicate dose response curves of 512 compounds (FIG. 14); conditions: 10-point duplicate curves, 100 μM to 5.6 nM, 3× dilution, MSI2 (His tag) 5 nM, NUMB-Biotin5′ RNA 1.25 nM, Streptavidin XL665 5 nM, His TB-Cryptate 0.6 nM, pH 7.3, read-out: MSI2 IC50 (normalized FRET ratio)
T1 construct: purchased LS Bio G2396
Text: In some embodiments, a MSI2 binding assay was developed where streptavidin labeled with XL665 or d2 was used as the acceptor, and Terbium (Tb) cryptate was used as the donor. For example, in the MSI2 binding assay, NUMB RNA was biotinylated at the 5′ end to create NUMB-Biotin 5′ RNA, which was coupled to the XL665 or d2-labeled streptavidin acceptor through streptavidin-biotin interaction. The MSI2 protein was engineered to contain a His tag, which was coupled to the Tb cryptate donor through an anti-His antibody attached to the Tb cryptate. Due to the MSI2-NUMB RNA interaction, the XL665 or d2 acceptor was brought into proximity of the Tb cryptate donor, thus generating a detectable FRET signal. Parameters of the binding assay, including the concentrations of MSI2 and NUMB-Biotin 5′ RNA, were optimized. Thus, the interaction of the MSI2 protein to NUMB-Biotin 5′ RNA could create a detectable FRET signal that can be used for subsequent binding assays and screening for modulators of MSI2-RNA interactions.
Reagents and protein/peptide: MSI2-LS Bio G2396 (provided in 20 mM Tris-HCL pH 8.0, 150 mM NaCl, 10% glycerol, 1 mM DTT); U1A-LS Bio G19194-10 (provided in 16 mM HEPES, pH 7.6, 400 mM NaCl, 20% glycerol); NUMB 5′Biotin—(IDT); NUMB 5′—(IDT); U1A RNA 5′ Biotin—(IDT); U1A RNA 5′—(IDT); HEPES pH 7.3 (RNase/DNase free)—(Fisher—BP299); Molecular grade water (RNase/DNase free)—(Invitrogen-10977-95); DTT (molecular grade—RNase/DNase free)—(Promega-V3151); Pluronic F-127—(Sigma Aldrich SKU #P2443); NaCl (RNase/DNase free)—(Sigma—S3014); 6His Terbium (TB) Cryptate—(CisBio—61HI2TLA); Streptavidin XL665 (CisBio—610SAXLA); AlphaPlate-1536 well flat bottom plate, Light gray (Perkin Elmer #6004350); and AlphaScreen Histidine Detection Kit (Perkin Elmer, Cat. No. 6760619C) containing AlphaScreen Nickel Chelate Acceptor Beads (5 mg/ml), and AlphaScreen Streptavidin Donor Beads (5 mg/ml).
(§1) FIG. 6 illustrates the FRET assay principle for MSI2 and U1A. The NUMB RNA probe for MSI2 was selected based on prior scientific publications and has the following sequence: 5′[…]-Biotin (SEQ ID NO: 1) (Oncotarget, 8(63): 106587-106597 (2017). The RNA probe for U1A was designed based on an interaction study between U1A and RNA done by NMR (Structure 4(5): 621-631 (1996)) and has the following sequence: 5′[…]-Biotin (SEQ ID NO: 2). The underlined sequence represents the part which interacts with the protein, the sequence of AYYGCAC should fit into the groove of U1A according to the NMR studies. The remaining sequence without underline is a spacer. The assay developed provides robust TR-FRET readout.
IC50 analysis of 512 compounds selected from the confirmation screen (MSI2:NUMB-Biotin5′) screen was performed. The 512 compounds were run in duplicate 10-point dose response curve with a high concentration of 100 μM and a low concentration of 5.6 nM. The total volume of the assay was 8 μl and all steps except for ECHO dispense were performed on Tempest disperser. 80 nL of compounds in DMSO was dispensed in 10 point titrations of 3× dilutions with the t concentration of 100 μM and the bottom concentration of 5.6 nM from 10 mM stock using ECHO acoustic dispenser-duplicate curves on the same assay plate. 2 μL of assay buffer was added, 2 μL of MSI2 (4× Conc.) final concentration of 5 nM was added, and incubated for 30 minutes. […]

MSI2-RNA interaction = target: T2, MSI2-RNA interaction (Homo sapiens, UniProt Q96DH6); test: MSI2 TR-FRET assay, primary screen and triplicate confirmation; type: binding; conditions: identified by the method disclosed herein
T2 construct: purchased LS Bio G2396
Experimental: In some embodiments, inhibitory compounds of MSI2-RNA interactions were identified using the methods disclosed herein. In a primary screening of small molecule compound libraries using the MSI2 binding TR-FRET assay, 194,914 compounds were screened at 15 μM final concentration for induced inhibition of MSI2-RNA interaction. Hit compounds were selected with a cut-off of at least 30% inhibition. Subsequently, after analysis of donor- and acceptor-channels, and removal of potential detection artefacts, 1,391 compounds were selected and confirmed by MSI2 and U1A TR-FRET assays in triplicates and at 15 μM concentration (Table 1).
as §1
FIG. 7 illustrates the high throughput screening workflow. […] The hit cut-off criteria are >30% inhibition. The hit triaging is based on analysis of donor- and acceptor-channels, removal of potential detection artefacts. The hit confirmation is based on triplicate confirmation runs (15 μM) in MSI2 and U1A TR-FRET assays. The compound selection for dose-response is a dose-response testing in MSI2 and U1A to filter for compounds that have the drug potential. The hit selection for hit to lead (HTL) is based on QC on dose responsive hits SAR tractability, and model building for hit expansion.

[2] = target: T3, U1A protein and U1A target-Biotin5′ RNA (Homo sapiens, UniProt P09012); test: U1A:Target-CTRL RNA competition assay, HTRF (384 well plate); type: binding; conditions: competitor RNA titrated from 1000 nM, 2× dilution over 9 points; U1A 5 nM + U1A Target-Biotin5′ 1.25 nM
T3 construct: purchased LS Bio G19194-10
Experimental: (§2) MSI2: Numb/U1A:Target RNA Competition assay-HTRF (384 well plate): CisBio HTRF protocol was followed in a total assay volume of 20 μl. 5 μL of NUMB-CTRL RNA/Target-CTRL (4× Conc.) titrated in 10 point in 2× dilution, 5 μL of MSI2 protein/U1A protein (4× Conc.) final concentration of 5 nM was added to each well, 5 μL of NUMB-Biotin5′/Target-Biotin5′ RNA (4× Conc.) final concentration of 1.25 nM and Streptavidin XL665 acceptor (4×) final concentration of 5 nM were added, and incubated for 60 minutes at room temperature. 5 μL of 4×His TB cryptate, final concentration of 0.6 nM was added and incubated at room temperature for 60 minutes and read on envision. The assay buffer contained 150 mM NaCl, 25 mM HEPES pH 7.3, 1 mM DTT, and 0.05% pluronic F-127.
(§3) NUMB RNA or U1A target RNA was titrated starting from 1000 nM in 2× dilution over 9 points against MSI2 5 nM+NUMB-Biotin5′ 1.25 nM. […] NUMB RNA or U1A target RNA was titrated starting from 1000 nM in 2× dilution over 9 points against U1A 5 nM+U1A Target-Biotin5′ 1.25 nM. […] X axis: Log of CTRL RNA (M); Y axis: (Streptavidin XL665/6His TB cryptate ratio)*1000.
(§4) NUMB RNA or U1A target RNA was titrated starting from 1000 nM in 2× dilution over 9 points against MSI2 5 nM+NUMB-Biotin5′ 1.25 nM. […] NUMB RNA or U1A target RNA was titrated starting from 1000 nM in 2× dilution over 9 points against U1A 5 nM+U1A Target-Biotin5′ 1.25 nM. […]

[3] = target: T4, MSI2 protein and NUMB-Biotin5′ RNA (Homo sapiens, UniProt Q96DH6); test: MSI2:NUMB-CTRL RNA competition assay, HTRF (384 well plate); type: binding; conditions: competitor RNA titrated from 1000 nM, 2× dilution over 9 points; MSI2 5 nM + NUMB-Biotin5′ 1.25 nM
T4 construct: purchased LS Bio G2396
Experimental: as §2, §3, §4

T2 sequence (Q96DH6 whole entry): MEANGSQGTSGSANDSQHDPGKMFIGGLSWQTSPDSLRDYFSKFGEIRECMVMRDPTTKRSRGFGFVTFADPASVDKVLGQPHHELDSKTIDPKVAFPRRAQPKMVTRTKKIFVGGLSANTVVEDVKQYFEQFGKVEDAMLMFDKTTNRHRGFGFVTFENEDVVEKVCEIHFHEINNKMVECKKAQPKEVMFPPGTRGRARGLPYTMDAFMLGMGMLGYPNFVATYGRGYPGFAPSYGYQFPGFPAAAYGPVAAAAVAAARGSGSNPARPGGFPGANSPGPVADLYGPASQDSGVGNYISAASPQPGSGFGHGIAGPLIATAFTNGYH
T1 sequence (Q96DH6 whole entry): as above
T3 sequence (P09012 whole entry, species assumed): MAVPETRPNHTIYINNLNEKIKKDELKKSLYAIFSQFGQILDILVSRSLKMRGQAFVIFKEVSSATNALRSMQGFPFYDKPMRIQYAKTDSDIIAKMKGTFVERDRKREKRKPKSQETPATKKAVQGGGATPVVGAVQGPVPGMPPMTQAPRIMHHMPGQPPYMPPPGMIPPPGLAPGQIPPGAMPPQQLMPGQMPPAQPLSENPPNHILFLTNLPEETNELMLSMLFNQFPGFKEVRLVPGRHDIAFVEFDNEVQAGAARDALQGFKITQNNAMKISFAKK
T4 sequence (Q96DH6 whole entry): as the sequence (Q96DH6 whole entry) above

Row | Compound | IC50 [1] | inhibitor of MSI2-RNA interaction identified by the method (MSI2-RNA interaction) | other results
1 | O=c1cc(CN2CCn3c(nnc3-c3ccccc3)C2)[nH]c2ccnn12 [WXHTS0101810, 5-({3-phenyl-5H,6H, 7H,8H-[1,2,4]triazolo[4,3-a]pyrazin-7-yl}methyl)-4H,7H-pyrazolo[1,5-a]pyrimidin-7-one] | 850 nM | – | –
2 | Cc1ccc(C)n1-c1sccc1C(=O)N1CC(C(N)=O)Oc2ccccc21 (stereo not drawn) [WXHTS0047719, 4-[2-(2,5-dimethyl-1H-pyrrol-1-yl)thiophene-3-carbonyl]-3,4-dihydro-2H-1,4-benzoxazine-2-carboxamide] | 710 nM | – | –
3 | Cc1ccc(C)n1-c1ccc(SCC(=O)O)cc1 [WXHTS0063086, 2-{[4-(2,5-dimethyl-1H-pyrrol-1-yl)phenyl]sulfanyl}acetic acid] | 470 nM | – | –
4 | Cc1cc(C)n2c(SCC(=O)c3cccc(N4CCCC4=O)c3)nnc2n1 [1-{3-[2-({5,7-dimethyl-[1,2,4]triazolo[4,3-a]pyrimidin-3-yl}sulfanyl)acetyl]phenyl}pyrrolidin-2-one] | – | inhibitors of MSI2-RNA interaction | –
5 | Cc1ccc(C)n1-c1sccc1C(=O)N1CC(C(N)=O)Oc2ccccc21 (stereo not drawn) [4-[2-(2,5-dimethyl-1H-pyrrol-1-yl)thiophene-3-carbonyl]-3,4-dihydro-2H-1,4-benzoxazine-2-carboxamide] | – | inhibitors of MSI2-RNA interaction | –
6 | Cc1ccc(C)n1-c1ccc(SCC(=O)O)cc1 [2-{[4-(2,5-dimethyl-1H-pyrrol-1-yl)phenyl]sulfanyl}acetic acid] | – | inhibitors of MSI2-RNA interaction | –
7 | Cc1cc(C)n2c(SCC(=O)c3cccc(N4CCCC4=O)c3)nnc2n1 [WXHTS0080223, 1-{3-[2-({5,7-dimethyl-[1,2,4]triazolo[4,3-a]pyrimidin-3-yl}sulfanyl)acetyl]phenyl}pyrrolidin-2-one] | 850 nM | – | –
8 | CC(=O)N1CCC(NC(=O)c2cc(C)c(C)s2)CC1 [N-(1-acetylpiperidin-4-yl)-4,5-dimethylthiophene-2-carboxamide] | – | inhibitors of MSI2-RNA interaction | –
9 | O=c1cc(CN2CCn3c(nnc3-c3ccccc3)C2)[nH]c2ccnn12 [5-({3-phenyl-5H,6H, 7H,8H-[1,2,4]triazolo[4,3-a]pyrazin-7-yl}methyl)-4H,7H-pyrazolo[1,5-a]pyrimidin-7-one] | – | inhibitors of MSI2-RNA interaction | –
10 | CC(=O)N1CCC(NC(=O)c2cc(C)c(C)s2)CC1 [WXHTS0092123, N-(1-acetylpiperidin-4-yl)-4,5-dimethylthiophene-2-carboxamide] | 920 nM | – | –
11 | NUMB RNA: non-biotinylated NUMB RNA that competes with NUMB-Biotin 5′ RNA to bind the MSI2 protein (UAGGUAGUAGUUUUA; non-biotinylated RNA, further chemistry not given here) | – | – | displacement of the binding signal between U1A protein and U1A target-Biotin5′ RNA [2]: did not displace the binding signal; displacement of the binding signal between MSI2 protein and NUMB-Biotin5′ RNA [3]: displaced the binding signal
